Laboratory results from US20100184852A1, “ORGANIC COMPOUNDS FOR TREATMENT OF DISORDERS CONNECTED TO IMPAIRED NEUROTRANSMISSION” (priority 2006, published 2010).

How the values were obtained:
[1] = molecular target: T1, Monoamine oxidase B (MAO-B) (Homo sapiens, UniProt P27338); assay: Monoaminooxidase B inhibition (H2O2/vanillic acid/HRP readout); assay type: biochemical
T1 sequence (P27338 1-520): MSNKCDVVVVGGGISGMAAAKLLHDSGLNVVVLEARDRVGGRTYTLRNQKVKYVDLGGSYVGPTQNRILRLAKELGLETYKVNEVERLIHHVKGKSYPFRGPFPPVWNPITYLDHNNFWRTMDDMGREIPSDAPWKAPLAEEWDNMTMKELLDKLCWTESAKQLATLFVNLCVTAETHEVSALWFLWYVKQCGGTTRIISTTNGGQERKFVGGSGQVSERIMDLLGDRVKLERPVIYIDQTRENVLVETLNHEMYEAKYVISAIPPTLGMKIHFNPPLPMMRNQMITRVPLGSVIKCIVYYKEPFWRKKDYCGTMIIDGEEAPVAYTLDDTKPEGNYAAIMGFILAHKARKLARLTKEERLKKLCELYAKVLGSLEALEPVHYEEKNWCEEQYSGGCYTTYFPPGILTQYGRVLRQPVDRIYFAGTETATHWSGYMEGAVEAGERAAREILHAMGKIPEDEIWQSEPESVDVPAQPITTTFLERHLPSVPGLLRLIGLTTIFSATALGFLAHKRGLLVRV
Procedure: (§1) The organic amines p-tyramine or benzylamine were used as substrates for the Monoamine oxidase A (MAO-A) and B (MAO-B) enzymes respectively. The H2O2 produced by this reaction was quantified by reaction with vanillic acid, catalysed by horse radish peroxidase (HRP).
(§2) The reactions were carried out in polystyrene microtitre plates. The MAO enzymes (final concentration 2 U/ml) were mixed with either p-tyramine (Sigma, final concentration 0.5 mM) or benzylamine (Sigma, final concentration 0.5 mM) as appropriate and the chromogenic solution (containing vanillic acid (Fluka), 4-aminoantipyrine (Fluka) and horse radish peroxidase (Sigma), final concentrations 0.25 mM, 0.125 mM and 1 U/ml respectively) in 0.2 M potassium phosphate buffer pH 7.6. The reactions were followed in a microtitre plate absorbance reader eg Spectramax M5 (Molecular Devices Corporation). Absorbance readings at 495 nm were taken every 15 seconds for 40 minutes and the initial reaction velocities calculated by linear regression using SOFTmaxPro (Molecular Devices Corporation).
(§3) The effect of ligustilide, 3-butylphthalide, senkyunolide C and cnidilide on the monoamine oxidase enzymes was determined by their inclusion in the assay at a range of concentrations between 0.03 and 100 μM for 10 minutes prior to and during the incubation with substrate. To determine the effect of the compounds on the HRP catalyzed portion of the reaction, the MAO enzyme was replaced by H2O2 (Molecular Probes, final concentration 0.2 mM). The reactions containing MAO-A and MAO-B were both inhibited by […] according to formula I in a dose dependent manner, whilst the control reaction, was unaffected. The measured IC50 values for inhibition of monoamine oxidase activity by ligustilide, 3-butylphthalide, senkyunolide C and enidilide, respectively, are shown in Table 3.

mice = assay: Porsolt's swim test (behavioural despair test); assay type: in vivo, mouse; conditions: for Duration of immobility [seconds] ± Standard Error of Mean: last 4 of 6 minutes
Procedure: The “Behavioural Despair Test” or “Porsolt's Forced Swim Test” is a validated animal model for depression (see T, Nagatsu 2004 Neuro Toxicology, 25:11-20, and Porsolt et al. 1977, Arch. Int. Pharmacodyn., 229: 327-336). It responds to enhancement of the trans-mission of several neurotransmitters including serotonine, dopamine and noradrenaline.
The test, which detects antidepressant activity, was carried out as described by Porsolt et al supra. Mice which are forced to swim in a situation from which they cannot escape rapidly become immobile. Antidepressants decrease the duration of immobility.
Mice were individually placed in a cylinder (Height=24 cm, Diameter=13 cm) containing 10 cm water (22° C.) from which they could not escape. The mice were placed in the water for 6 minutes and the duration of immobility during the last 4 minutes was measured.
10 mice were studied per each of the four groups. The test was performed blind, i.e. the person carrying out the experiment was different from the person injecting the mice and didn't thus know to which of the four groups each mouse belonged.
3-n-butylphthalide (98.5% purity) was evaluated at 3 doses each: at 10, 30 and 80 mg/kg body weight, administered intraperitoneally 30 minutes before the test, and compared with a control group. The thus administered 3-n-butylphthalide was dissolved in a saline solution containing 3 weight-% DMSO and 3 weight-% Tween® 80 (so called “vehicle”), To the control group the vehicle consisting of the saline solution containing 3 weight-% DMSO and 3 weight-% Tween® 80 was administered intraperitoneally.

[2] = molecular target: T2, Monoamine oxidase A (MAO-A) (Homo sapiens, UniProt P21397); assay: Monoaminooxidase A inhibition (H2O2/vanillic acid/HRP readout); assay type: biochemical
T2 sequence (P21397 1-527): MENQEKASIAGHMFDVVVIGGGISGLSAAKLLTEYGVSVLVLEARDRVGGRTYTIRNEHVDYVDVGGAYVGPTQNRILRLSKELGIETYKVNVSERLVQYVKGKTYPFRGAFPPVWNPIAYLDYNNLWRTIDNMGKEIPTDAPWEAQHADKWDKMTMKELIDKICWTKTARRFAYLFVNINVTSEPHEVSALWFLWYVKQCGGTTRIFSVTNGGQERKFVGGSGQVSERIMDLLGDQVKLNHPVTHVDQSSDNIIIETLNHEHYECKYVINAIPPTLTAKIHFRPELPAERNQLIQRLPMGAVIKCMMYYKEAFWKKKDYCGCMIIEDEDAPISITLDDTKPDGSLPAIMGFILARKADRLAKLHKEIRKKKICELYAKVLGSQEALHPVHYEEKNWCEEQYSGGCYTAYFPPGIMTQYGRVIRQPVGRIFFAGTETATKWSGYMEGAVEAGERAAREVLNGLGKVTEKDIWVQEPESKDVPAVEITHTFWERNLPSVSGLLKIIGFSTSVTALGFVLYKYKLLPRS
Procedure: as §1, §2, §3

SMILES	IC50 [1]	Duration of immobility [seconds] ± Standard Error of Mean (mice; 10 mg/kg body weight)	Duration of immobility [seconds] ± Standard Error of Mean (mice; 30 mg/kg body weight)	Duration of immobility [seconds] ± Standard Error of Mean (mice; 80 mg/kg body weight)	reduction of the immobility time (mice; between 10 and 80 mg/kg, tendency)	IC50 [2]	reduction of the immobility time (mice; 10 mg/kg, tendency)	reduction of the immobility time (mice; higher doses (30 and 80 mg/kg))
CCCC[C@@H]1OC(=O)c2ccccc21 (stereo in doubt) [3-n-butylphthalide, 3-n-Butylphthalide]	56.1 µM	132.4 ± 9.3 s	128.0 ± 15.3 s	129.0 ± 15.4 s	approximately 18%	8.1 µM	–	–
CCC/C=C1\OC(=O)C2=C1CCC=C2 [Ligustilide]	24.9 µM	128.9 ± 15.1 s	164.2 ± 15.5 s	–	–	15.7 µM	approx. 18%	not at the higher doses
